Experimental data as given in patent US20220082578A1, “METHOD OF Q[…]'S MAIN METABOLITES, PSILOCIN AND 4-HYDROXYINDOLE-3-ACETIC ACID, IN HUMAN PLASMA” (Universitätsspital Basel, priority 2020, published 2022).
Where two headings read alike, the source gives them in different places.

Tests used:
[1] = Stability of psilocin and 4-HIAA in plasma under different storage conditions; assay type: physicochemical; conditions: human plasma, frozen at −20° C., thawed at room temperature
Experimental: The stability of psilocin and 4-HIAA in plasma were investigated under different storage conditions. Seven replicates of LLOQ, QCLOW, QCMID, and QCHIGH samples were stored for 8 hours at room temperature (bench-top stability) and for 1 month at −20° C. (one-month stability). Moreover, the stability was assessed after three consecutive freeze and thaw cycles (freeze/thaw stability), thereby freezing the QC samples at −20° C. for at least 24 hours and thawing them afterwards at room temperature. The concentration of those stability test samples was calculated based on a freshly prepared calibration line. Samples were designated to be stable if the accuracy was between 85-115% (LLOQ: 80-120%) and the precision ≤15% (LLOQ: ≤20%).

[2] = Pharmacokinetics of psilocin and 4-HIAA in plasma of healthy volunteers after a single oral dose of 25 mg psilocybin (LC-MS/MS); assay type: in vivo, human; conditions: for Cmax / Tmax / AUC(0-t) / half-life: human; for Cmax / Tmax: po, 25 mg; for AUCLAST relative to AUCLAST of psilocin: 0-420 min
Experimental: To examine the application of the developed method, psilocin and 4-HIAA concentrations were quantified in plasma samples of three healthy volunteers receiving a single oral dose of 25 mg psilocybin. This is a moderate to high dose currently used in clinical phase 2-3 studies. The study was approved by the Ethical Committee of Northwestern and Central Switzerland (EKNZ, BASEC ID: 2019-00223), registered at ClinicalTrials.gov (ID: NCT03912974), and conducted in accordance with the Declaration of Helsinki and International Conference on Harmonization Guidelines in Good Clinical Practice. All volunteers provided written informed consent prior to study participation.
To establish concentration time profiles, blood samples were collected in lithium heparin coated tubes at the following time points: 2 hours before and 0, 15, 30, 45, 60, 90, 120, 150, 180, 240, 300, 360, and 420 minutes after treatment. Blood samples were centrifuged for 10 minutes at 3000 rpm to obtain plasma, which was transferred into cryotubes. All samples were stored −80° C. until analysis.
Study, calibration, and QC samples were processed as described before. In addition, the total amount of glucuronide conjugated psilocin and 4-HIAA was determined similar to the protocol of Kamata et al. (2006). In brief, 5 μl of Escherichia coli deglucuronidase (3000 units/ml in water) was mixed with 50 μl plasma sample. An aliquot of 100 μl acetic acid buffer (0.1 M) was added to the mixture. The samples were incubated for 3 hours at 37° C. in a thermomixer (Eppendorf, Hamburg, Germany). Enzymatic reaction was terminated, and samples extracted by the addition of 150 μl methanol. The samples were vortex mixed and centrifuged as outlined above.
For each analytical run, a calibration line was analysed at the beginning and at the end of the measurements. In between, the study samples of the three volunteers were measured as well as triplicates of LLOQ, QCLOW, QCMID, and QCHIGH samples. Samples with a concentration below the LLOQ were marked as blq (below limit of quantification) and samples with concentrations above the ULOQ were diluted with blank plasma into the calibration range.
The concentration-time profile was plotted and the maximal plasma concentration (Cmax) and time to reach it (Tmax) were obtained graphically from the plots. Pharmacokinetic parameters were calculated using non-compartmental methods in Phoenix WinNonlin 8.3 (Certara, N.J., USA). The area under the plasma concentration time profile was calculated by using the linear trapezoidal rule from 0-420 min (AUCLAST). The elimination half-life (t1/2) was calculated by the equation
where the elimination rate constant (λ) was the slope of log(C(t)) versus t determined in the terminal elimination phase.

[3] = cited from earlier work
[4] = plasma, average of three healthy volunteers, oral 25 mg psilocybin, read-out: maximal plasma level (Cmax)
[5] = plasma, plasma, three healthy volunteers, oral dose of 25 mg psilocybin, read-out: Cmax ± SD
[6] = plasma, three healthy volunteers, oral dose of 25 mg psilocybin
[7] = area under the plasma concentration time curve until 7 h post treatment, oral 25 mg psilocybin
[8] = after oral administration of psilocybin

| SMILES | accuracy of QC samples after three freeze and thaw cycles [1] | Cmax [2, 4] | Cmax [2, 5] | Tmax [2, 6] | AUC(0-t) [2, 7] | half-life [2, 6] | AUCLAST relative to AUCLAST of psilocin ([2]; oral 25 mg psilocybin) | Tmax ± SD [2, 6] | plasma concentration (not detectable at limit of detection) ([2]; plasma of volunteers who received 25 mg psilocybin) | AUClast [2, 7] | maximal plasma level (Cmax) ([2]; average of three healthy volunteers, oral 25 mg psilocybin) | t1/2 [2, 6] | Tmax ± SD ([2]; plasma, three healthy volunteers, oral dose of 25 mg psilocybin, listed as Psilocin-glucuronide) | glucuronide conjugation in plasma ([2]; samples reanalysed after deglucuronidation with Escherichia coli glucuronidase) | elimination half-life [3, 8] | peak concentrations in plasma [3, 8] | time to peak plasma concentration [3, 8] | fraction excreted from body as psilocin-O-glucuronide ([3]; in vivo) |
| --- | --- | --- | --- | --- | --- | --- | --- | --- | --- | --- | --- | --- | --- | --- | --- | --- | --- | --- |
| O=C(O)Cc1c[nH]c2cccc(O)c12 [4-HIAA, 4-hydroxyindole-3-acetic acid] | 100-109% | 137 ng/mL | 137 ± 22 ng/mL | 2 to 2.33 h | 372 ng·h/mL | 2.32 h | about 5 fold | 2 ± 1 h | – | – | – | – | – | – | – | – | – | – |
| OCCc1c[nH]c2cccc(O)c12 [4-HTP, 4-hydroxytryptophol] | – | – | – | – | – | – | – | – | < 2.5 ng/mL | – | – | – | – | – | – | – | – | – |
| CN(C)CCc1c[nH]c2cccc(O[C@@H]3O[C@H](C(=O)O)[C@@H](O)[C@H](O)[C@H]3O)c12 [psilocin-glucuronide, psilocin-O-glucuronide] | – | – | – | – | – | – | 5-6 fold | roughly 220 min | – | 20631 ng·min/mL | 78.3 ng/mL | 3.58 ± 1.2 h | 3.67 ± 1.53 h | – | – | – | – | – |
| CN(C)CCc1c[nH]c2cccc(O)c12 [psilocin] | 105-108% | 19.2 ng/mL | 19.2 ± 4 ng/mL | 2 to 2.33 h | 61.2 ng·h/mL | 2.12 h | – | 2.33 ± 0.767 h | – | – | – | – | – | underwent extensive 0-glucuronidation | 2 to 3 h | 10 to 40 ng/mL | 1.5 to 2 h | 80% |
